According to US20250171762A1, “THERAPEUTICAL PEPTIDOMIMETIC” (UNIVERSITA' DEGLI STUDI DI ROMA "LA SAPIENZA", priority 2021, published 2025):
Entries after “also recorded” stand apart in the source; their conditions may differ. Read-outs that look alike come from different tables or passages of the source.

How the values were obtained:
[1] = Plasma stability: incubation in human plasma, UPLC-MS quantification; type: in vitro ADME; settings: for remaining at 3 h, 0.2 mM: read-out: peptide available after incubation in plasma
Description: Panel B. Time course decay of β32_33, PMT, PMT-8a and PMT-8b incubated up to 72 h with human plasma from four healthy subjects. […] The Y axis indicates the signal intensity of the four peptides. Samples of plasma were obtained from healthy volunteers and immediately used for the analysis. Either β32_33 peptide or PMT for the experiment in panel A, and β32_33 peptide, PMT, PMT-8a or PMT-8b for the experiment in panel B, was incubated in plasma at a final concentration of 0.2 mM, at 37° C., up to 3 h (A) or 72 h (B). At the indicated time points, i.e., T0 and 3 h (A) or T0, 1.5, 3, 6 and 72 h (B), aliquots of 200 μL were treated with 3 volumes of acetonitrile containing 1% formic acid and extracted by a solid phase extraction system to remove proteins and phospholipids. Samples were dried under vacuum, resuspended in 100 μL of 0.1% formic acid containing 5% acetonitrile, and analyzed with a Water Acquity H-Class UPLC system equipped with a single-quadruple mass detector with electrospray ionization source. Samples were separated onto a reverse phase C18 column by performing a gradient with two mobile phases consisting of 0.1% formic acid in water and 0.1% formic acid in acetonitrile at a flow rate of 0.5 mL/min. Quantification was performed by Selected lon Recording (SIR): at m/z=917.88, corresponding to the [M+2 H]^2+ion obtained from either β32_33 or PMT; at m/z=961.42, corresponding to the [M+H]^+ion obtained from PMT-8a; and at m/z=869.48, corresponding to the [M+H]^+ion obtained from PMT-8b.
In order to evaluate whether compounds (βp and d-βp) are stable in blood or hydrolyzed by plasma peptidases, we set up a chromatographic assay to evaluate compound concentration after incubation in human plasma.
Blood was drawn by venipuncture in vacutainer containing EDTA as an anticoagulant.
Two different samples from healthy volunteers were used. Plasma was separated by centrifugation and immediately used for the experiments. Each compound was dissolved in 500 uL plasma at a final concentration of 0.2 mM, and split into two aliquots, one of which was immediately analyzed to assess the basal compound level; the other was incubated at 37° C. for 3 hours under gentle shaking. In order to perform chromatographic analysis the samples were treated with 3 volumes of acetonitrile containing 1% formic acid, and then extracted by using the Ostro™ pass-through sample preparation system to remove proteins and phospholipids. Samples were dried under vacuum and then resuspended in 100 uL of 0.1% formic acid containing 5% acetonitrile, then directly injected onto the chromatographic column.
Chromatographic analyses were performed on a Water Acquity H-Class UPLC system (Waters, Milford, MA, USA), including a quaternary solvent manager (QSM), a sample manager with a flow through needle system (FTN), a photodiode array detector (PDA) and a single-quadruple mass detector with electrospray ionization source (ACQUITY QDa). Analyses were performed on a reverse phase C18 column (75 mm×3.2 mm i.d., 2.5 μm particle size). The mobile phase was solvent A, 0.1% formic acid in water, and solvent B, 0.1% formic acid in acetonitrile. The flow rate was 0.5 mL/min, the column temperature was set at 25° C. and the elution was performed by linearly increasing the concentration of solvent B up to 70% in 7 minutes. Mass spectrometric detection was performed in the positive electrospray ionization mode, using nitrogen as the nebulizer gas. Analyses were performed in the Total lon Current (TIC) mode with a mass range of 100-1200 m/z. The capillary voltage was 0.8 kV, cone voltage 8 V, ion source temperature 120° C. and probe temperature 600° C. Quantification of each compound was performed by Selected lon Recording (SIR) at m/z 917.88, corresponding to the […]

[2] = tested on: m·3243A>G mt-tRNA^Leu(UUR) mutant cybrids; test: Cell viability, Trypan blue dye exclusion, galactose vs glucose medium; type: cell-based, human; settings: for viability of mutant cybrids vs non treated mutant cells: galactose medium
Description: For viability assessment, cells were plated in either glucose or galactose medium. The reason for this is that a viability phenotype can be appreciated in cells growing on galactose, which forces cells to rely on mitochondrial respiration, but not in cells growing on glucose. After 24 hours incubation, the number of viable cells in the galactose medium was normalized to the number of viable cells in glucose at the same time point, which represents the normal growth condition. Data are compared with the value of mutant cells incubated with vehicle only. Mean±SEM of at least three independent experiments is shown.
For viability assessment, cells were plated in either glucose or galactose medium. The reason for this is that a viability phenotype can be appreciated in cells growing on galactose, which forces cells to rely on mitochondrial respiration, but not in cells growing on glucose. After 24 hours incubation the number of viable cells in galactose medium was normalized to the number of viable cells in glucose (that represents the normal growth condition) at the same time point. Data are compared with the value of mutant cells incubated with vehicle only. Means±SEM of at least two independent experiments are shown.
Previously established osteosarcoma derived (143B.TK-) cybrid cell lines from patients, which bear either the m·3243A>G mutation in mt-tRNA^Leu(UUR) or the m·8344A>G mutation in mt-tRNA^Lys, and controls were used (generous gift from Dr Valeria Tiranti and Dr Valerio Carelli).
Cybrid cells were cultured in Dulbecco's modified Eagle's medium (DMEM), supplemented with 4.5 g/l d-glucose, 10% foetal bovine serum (FBS), 2 mM I-glutamine, 50 μg/ML uridine, 100 U/mL penicillin, and […] (referred to as glucose medium) in a humidified atmosphere of 95% air and 5% CO2 at 37° C. For cell viability experiments, cells were grown either in glucose medium or in glucose-free DMEM, supplemented with 5 mM galactose, […] sodium pyruvate, and 10% FBS (referred to as galactose medium). The reason for using the latter medium is that a pathological phenotype can be appreciated in cells growing on galactose, which forces cells to rely on mitochondrial respiration, but not in cells growing on glucose.
[…] Cells were switched in glucose or galactose and after 24 hours cell viability was measured by the Trypan blue dye exclusion assay. Cells were harvested with 0.25% trypsin and 0.2% EDTA, washed, suspended in PBS in the presence of Trypan blue solution (Sigma-Aldrich) at 1:1 ratio and counted using a hemocytometer. The number of viable cells in galactose medium was expressed as a percentage of the number of cells in glucose medium.
(§1) To evaluate the effect of the compounds on viability, cybrids were grown in glucose-free medium supplemented with galactose (galactose medium), a condition that both forces cells to rely on the mt respiratory chain for ATP synthesis and causes a significant growth reduction in the presence of mutations.
as §1, with “PMT and M-PMT” for “the compounds”

[3] = first experiment, plasma of two healthy volunteers, 37° C., 0.2 mM, 3 hours (FIG. 4A)
[4] = human, human plasma (EDTA) from healthy volunteers, first experiment, plasma of two healthy volunteers, 37° C., 0.2 mM, 3 hours (FIG. 4A)
[5] = second experiment, plasma of four healthy volunteers, 3 hours (FIG. 4B)

peptide available after incubation in plasma [1, 3] [%] | degraded peptide after incubation in plasma ([1]; first experiment, plasma of two healthy volunteers, 37° C., 3 hours (FIG. 4A)) | remaining at 3 h, 0.2 mM [1, 4] [%] | metabolised at 3 h, 0.2 mM ([1]; human, human plasma (EDTA) from healthy volunteers, first experiment, plasma of two healthy volunteers, 37° C., 3 hours (FIG. 4A), read-out: degraded peptide after incubation in plasma) [%] | metabolised at 6 h, 0.2 mM ([1]; human, human plasma from healthy volunteers, second experiment, 6 h, read-out: peptide degraded after incubation in plasma) [%] | remaining at 1.5 h, 0.2 mM ([1]; human, human plasma from healthy volunteers, second experiment, plasma of four healthy volunteers, 1.5 h (FIG. 4B), read-out: starting amount present after incubation in plasma) [%] | remaining at 3 h, 0.2 mM ([1]; human, human plasma from healthy volunteers, second experiment, plasma of four healthy volunteers, 3 hours (FIG. 4B)) [%] | peptide available after incubation in plasma [1, 5] [%] | remaining at 6 h, 0.2 mM ([1]; human, human plasma from healthy volunteers, second experiment, 6 h, read-out: peptide present after incubation in plasma) [%] | detectable degradation in plasma ([1]; second experiment, plasma of four healthy volunteers, up to 72 h) | Compound | viability of mutant cybrids vs non treated mutant cells ([2]; 0.5 μM, 24 hours (FIG. 6)) | viability of mutant cybrids vs non treated mutant cells ([2]; 2 μM, 24 hours (FIG. 6)) | viability of mutant cybrids vs non treated mutant cells ([2]; 5 μM, 24 hours) | lower concentration improving viability with respect to PMT ([2]; m·3243A>G mutant cybrids, FIG. 6) [fold] | detectable degradation in plasma ([1]; first experiment, plasma of two healthy volunteers, 3 hours) | plasma stability compared with another peptide ([1]; human plasma, FIG. 4)
70 | at least 30% | 70 | 30 | 90 | > 85 | 17 | 17 |  |  | CC[C@H](C)[C@H](NC(=O)[C@H](CC(C)C)NC(=O)[C@H](C)NC(=O)[C@@H](NC(=O)[C@H](CCCNC(=N)N)NC(=O)[C@@H]1CCCN1C(=O)[C@H](CO)NC(=O)[C@H](CC(C)C)NC(=O)[C@H](Cc1ccccc1)NC(=O)[C@H](CO)NC(=O)[C@H](CCCCN)NC(=O)[C@@H](N)CCCCN)[C@@H](C)O)C(=O)N[C@@H](CC(N)=O)C(=O)N[C@@H](Cc1ccccc1)C(=O)N[C@@H](CC(C)C)C(=O)N[C@H](C(=O)O)C(C)C [β32_33, KKSFLSPRTALINFLV, reference compound] |  |  |  |  |  | 
 |  |  |  |  |  |  |  |  |  | FRFKKKSFLSPRTALINFLV (SITE 1 d-Phenylalanine; SITE 2 d-Arginine; SITE 3 d-Phenylalanine; SITE 4 d-Lysine; SITE 5 d-Lysine; SITE 6 d-Lysine; SITE 7 d-Serine; SITE 8 d-Phenylalanine; SITE 9 d-Leucine; SITE 10 d-Serine; SITE 11 d-Proline; SITE 12 d-Arginine; SITE 13 d-Threonine; SITE 14 d-Alanine; SITE 15 d-Leucine; SITE 16 d-Isoleucine; SITE 17 d-Asparagine; SITE 18 d-Phenylalanine; SITE 19 d-Leucine; SITE 20 d-Valine) [M-PMT] | significantly improves | significantly improved | significantly improved | 10 |  | 
100 |  | 100 |  |  |  |  | > 63 | > 50 | did undergo detectable degradation | CC[C@@H](C)[C@@H](NC(=O)[C@@H](CC(C)C)NC(=O)[C@@H](C)NC(=O)[C@H](NC(=O)[C@@H](CCCNC(=N)N)NC(=O)[C@H]1CCCN1C(=O)[C@@H](CO)NC(=O)[C@@H](CC(C)C)NC(=O)[C@@H](Cc1ccccc1)NC(=O)[C@@H](CO)NC(=O)[C@@H](CCCCN)NC(=O)[C@H](N)CCCCN)[C@H](C)O)C(=O)N[C@H](CC(N)=O)C(=O)N[C@H](Cc1ccccc1)C(=O)N[C@H](CC(C)C)C(=O)N[C@@H](C(=O)O)C(C)C [PMT, d(K)d(K)d(S)d(F)d(L)d(S)d(P)d(R)d(T)d(A)d(L)d(I)d(N)d(F)d(L)d(V)] |  |  |  |  | does not undergo visible degradation; also recorded: did not undergo detectable degradation | consistently higher stability than the β32_33 peptide; also recorded: higher plasma stability than the β32_33 peptide at all time points; also recorded: slower degradation than the β32_33 peptide
